One data set has as its system mice. The data set is described as follows: oral administration to mice, observation of untoward effects at anxiolytic doses. The format is in vivo. The settings on record: orally; for untoward effects: at doses at which the compounds exhibit anxiolytic activity. The source says:
(§1) The compounds of the invention are essentially non-toxic and therapeutically useful doses.

In the next data set the test system is rats. The data set is described as follows: oral administration to rats, observation of untoward effects at anxiolytic doses. The class given is in vivo. To be noted: orally.
Source text: as §1

In the next data set the target is CCK-A receptor. The data set is described as follows: CCK-A receptor binding (Pancreas Assay). On the procedure: Exp & Ther. 261, 1056-1063, 1992.
The binding affinity of the compounds of the invention for the CCK-A receptor (Pancreas Assay) and CCK-B receptor (guinea pig cortex assay) was determined using the procedure of G Dal Forno et al J. Pharmacol. Exp & Ther. 261-1056-1063.

The target of another data set is T1, CCK-B receptor (Cavia porcellus, UniProt H0VZC5).
T1 construct: CCK-B receptor (guinea pig cortex assay); from tissue; host or cells: guinea pig cortex
T1 sequence (H0VZC5 1-426): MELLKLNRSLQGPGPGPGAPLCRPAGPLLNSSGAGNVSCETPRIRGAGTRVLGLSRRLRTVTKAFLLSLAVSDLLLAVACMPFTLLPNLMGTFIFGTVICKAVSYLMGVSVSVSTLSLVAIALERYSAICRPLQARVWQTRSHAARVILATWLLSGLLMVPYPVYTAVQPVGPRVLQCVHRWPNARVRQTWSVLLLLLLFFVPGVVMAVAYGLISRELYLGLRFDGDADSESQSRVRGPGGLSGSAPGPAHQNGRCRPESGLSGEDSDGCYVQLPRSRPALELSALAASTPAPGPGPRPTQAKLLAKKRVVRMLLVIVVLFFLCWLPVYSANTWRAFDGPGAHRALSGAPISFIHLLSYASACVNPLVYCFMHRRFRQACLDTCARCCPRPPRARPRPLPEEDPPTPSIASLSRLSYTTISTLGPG
The data set can be described thus: CCK-B receptor binding (guinea pig cortex assay). As to the method:
The greater affinity of the compounds of the invention for the CCK-B receptor over the CCK-A receptor has also been established using the CCK receptor binding assays described by G Dal Forno et al., J. Pharmcol. Exp & Ther. 261, 1056-1063, 1992.
The binding affinity of the compounds of the invention for the CCK-A receptor (Pancreas Assay) and CCK-B receptor (guinea pig cortex assay) was determined using the procedure of G Dal Forno et al J. Pharmacol. Exp & Ther. 261-1056-1063. The pKi values determined with representative compounds of invention were as follows: […]

Where [1] appears, read: CCK-B receptor, guinea pig cortex assay, read-out: pKi CCK-B (converted).

This note sets out measurements from patent US5716953A, “1,5-benzodiazepine derivatives” (Glaxo Wellcome S.p.A., priority 1993, dated 1998).

Where a name gives a salt, the structure may show the parent alone. Read-outs that look alike come from different tables or passages of the source.

On to `O=C(Nc1ccccc1)NC1C(=O)N(CCN2CCOCC2)c2ccccc2N(CC23CC4CC(CC(C4)C2)C3)C1=O` (single isomer, unassigned; (-)) [Example 18, (-)[1-(1-Adamantylmethyl)-2,4-dioxo-5-[2-(4-morpholino)ethyl]-2,3,4,5-tetrahydro-1H-1,5-benzodiazepin-3-yl]-N'-phenylurea, hydrochloride salt], for which the anxiolytic activity entry in the data set on mice and in the data set on rats was “exhibit anxiolytic activity” throughout. The untoward effects result in the data set on mice and in the data set on rats (at doses at which the compounds exhibit anxiolytic activity) was “no untoward effects were observed” throughout.
On to `CC(C)CCN1C(=O)C(NC(=O)Nc2ccc(O)cc2)C(=O)N(CCN2CCOCC2)c2ccccc21` (stereo not shown) [Example 5, N-[2,4-Dioxo-1-(3-methyl-1-butyl)-5-[2-(4-morpholinyl)ethyl]-2,3,4,5-tetrahydro-1H-1,5-benzodiazepin-3-yl]-N'-(4-hydroxyphenyl)urea], for which the “pKi CCK-A” value on CCK-A receptor came to 5.08. Further, the Ki at CCK-B receptor (setting [1]) is 7.41 nM.
The corresponding values for `CN(C)CCCN1C(=O)C(NC(=O)Nc2ccccc2)C(=O)N(CC23CC4CC(CC(C4)C2)C3)c2ccccc21` (stereo not shown) [Example 8, N-[1-(1-Adamantylmethyl)-5-[3-(dimethylamino)propyl]-2,4-dioxo-2,3,4,5-tetrahydro-1H-1,5-benzodiazepin-3-yl]-N'-phenylurea] are 4.69 and 3.63 nM.
For the compound `CC(C)CCN1C(=O)C(NC(=O)Nc2ccccc2)C(=O)N(CCN2CCCCC2)c2ccccc21` (stereo not shown) [Example 2, N-[2,4-Dioxo-1-(3-methyl-1-butyl)-5-[2-(1-piperidino)ethyl]-2,3,4,5-tetrahydro-1H-1,5-benzodiazepin-3-yl]-N'-phenylurea], the “pKi CCK-A” value on CCK-A receptor came out at 5.69. Moreover, the Ki on CCK-B receptor (setting [1]) is 6.76 nM.
As to `N[C@@H](CO)CN1C(=O)C(NC(=O)Nc2ccccc2)C(=O)N(CC23CC4CC(CC(C4)C2)C3)c2ccccc21` (stereo partly drawn) [Example 12, N-[1-(1-Adamantylmethyl)-2,4-dioxo-5-[(3-hydroxy-2(R)amino)propyl]-2,3,4,5-tetrahydro-1H-1,5-benzodiazepin-3-yl]-N'-phenylurea hydrochloride], the “pKi CCK-A” value at CCK-A receptor was found to be 5.04. Also, the “pKi CCK-B” value at CCK-B receptor (CCK-B receptor, guinea pig cortex assay) amounted to 8.18.
Consider `COc1ccc(NC(=O)NC2C(=O)N(CCC(C)C)c3ccccc3N(CCN3CCOCC3)C2=O)cc1` (stereo not shown) [Example 4, N-[2,4-Dioxo-1-(3-methyl-1-butyl)-5-[2-(4-morpholino)ethyl]-2,3,4,5-tetrahydro-1H-1,5-benzodiazepin-3-yl]-N'-(4-methoxyphenyl)urea], for which the “pKi CCK-A” value at CCK-A receptor is recorded as 5.29. In addition, the Ki at CCK-B receptor (setting [1]) was 7.94 nM.
On the same counts, the results for `CC(C)CCN1C(=O)C(NC(=O)Nc2ccc(C(F)(F)F)cc2)C(=O)N(CCN2CCOCC2)c2ccccc21` (stereo not shown) [Example 16, N-[2,4-Dioxo-1-(3-methyl-1-butyl)-5-[2-(4-morpholino)ethyl]-2,3,4,5-tetrahydro-1H-1,5-benzodiazepin-3-yl]-N'-(4-trifluoromethyl)phenylurea] are 5.83 and 3.63 nM.
Turning to `Cc1cccc(NC(=O)NC2C(=O)N(CCN3CCCCCC3)c3ccccc3N(c3ccccc3)C2=O)c1` (stereo not shown) [Example 17, N-[2,4-Dioxo-1-[2-(hexamethyleneimino)ethyl]-5-phenyl-2,3,4,5-tetrahydro-1H-benzodiazepin-3-yl]-N'-(3-tolyl)urea], the “pKi CCK-A” value on CCK-A receptor amounted to 5.08. For the same compound, the Ki at CCK-B receptor is 2 nM.
Turning to `CC(C)CCN1C(=O)C(NC(=O)Nc2ccc(Cl)cc2)C(=O)N(CCN2CCOCC2)c2ccccc21` (stereo not shown) [Example 15, N-[1-(3-methyl-1-butyl)-2,4-dioxo-5-[2-(4-morpholino)ethyl]-2,3,4,5-tetrahydro-1H-benzodiazepin-3-yl]-N'-(4-chlorophenyl)urea], the “pKi CCK-A” value at CCK-A receptor worked out at 5.99. The Ki on CCK-B receptor (setting [1]) is 1.95 nM.
The corresponding values for `CCN(CC)CCN1C(=O)C(NC(=O)Nc2ccccc2)C(=O)N(CC2CCCCC2)c2ccccc21` (stereo not shown) [Example 13, N-[1-(Cyclohexylmethyl)-2,4-dioxo-5-[(2-diethylamino)ethyl]-2,3,4,5-tetrahydro-1H-1,5-benzodiazepin-3-yl]-N'-phenylurea] are 5.82 and 1.02 nM.
On the same counts, the results for `O=C(Nc1ccccc1)NC1C(=O)N(CCN2CCOCC2)c2cc(F)ccc2N(CC23CC4CC(CC(C4)C2)C3)C1=O` (stereo not shown) [Example 14, N-[1-(1-Adamantylmethyl)-2,4-dioxo-7-fluoro-5-[2-(4-morpholino)ethyl]-2,3,4,5-tetrahydro-1H-1,5-benzodiazepin-3-yl]-N'-phenylurea] are 5.88 and 4.37 nM.
For the compound `O=C(Nc1ccccc1)NC1C(=O)N(CCN2CCOCC2)c2ccccc2N(CC23CC4CC(CC(C4)C2)C3)C1=O` (single isomer, unassigned) [Example 11 (isomer 1), N-[1-(1-Adamantylmethyl)-2,4-dioxo-5-[2-(4-morpholino)ethyl]-2,3,4,5-tetrahydro-1H-benzodiazepin-3-yl]-N'-phenylurea Isomer 1], the “pKi CCK-A” value at CCK-A receptor is on record as 5.69. In addition, the Ki on CCK-B receptor (setting [1]) was 0.214 nM. Further, in the data set on mice, the anxiolytic activity result is recorded as “exhibit anxiolytic activity” and the untoward effects result is recorded as “no untoward effects were observed”.
Regarding `CC(C)CCN1C(=O)C(NC(=O)Nc2ccccc2)C(=O)N(CCN(C)C)c2ccccc21` (stereo not shown) [Example 3, N-[5-[2-(Dimethylamino)ethyl]-2,4-dioxo-1-(3-methyl-1-butyl) -2,3,4,5-tetrahydro-1H-1,5-benzodiazepin-3-yl]-N'-phenylurea], at CCK-A receptor, the “pKi CCK-A” value came out at 5.48. Moreover, on CCK-B receptor (setting [1]), the Ki is 4.68 nM.
On the same counts, the results for `O=C(Nc1ccccc1)NC1C(=O)N(CCN2CCCC2)c2ccccc2N(CC23CC4CC(CC(C4)C2)C3)C1=O` (stereo not shown) [Example 10, N-[1-(1-Adamantylmethyl)-2,4-dioxo-5-[2-(1-pyrrolidino)ethyl]-2,3,4,5-tetrahydro-1H-benzodiazepin-3-yl]-N'-phenylurea] are 5.02 and 1.05 nM.
As to `CC(C)CCN1C(=O)C(NC(=O)Nc2ccccc2)C(=O)N(CCN2CCOCC2)c2ccccc21` (stereo not shown) [Example 1, N-[2,4-Dioxo-1-(3-methyl-1-butyl)-5-[2-(4-morpholinyl)ethyl]-2,3,4,5-tetrahydro-1H-1,5-benzodiazepin-3-yl]-N'-phenylurea], on CCK-A receptor, the “pKi CCK-A” value worked out at 6.17. At CCK-B receptor (setting [1]), the Ki is 2.88 nM.
Regarding `O=C(Nc1ccccc1)NC1C(=O)N(CCN2CCOCC2)c2ccccc2N(CC23CC4CC(CC(C4)C2)C3)C1=O` (stereo not shown) [Example 9, N-[1-(1-Adamantylmethyl)-2,4-dioxo-5-[2-(4-morpholino)ethyl]-2,3,4,5-tetrahydro-1H-benzodiazepin-3-yl]-N'-phenylurea], the “pKi CCK-A” value on CCK-A receptor is 5.69. Further, on CCK-B receptor (setting [1]), the Ki was 0.575 nM.
The corresponding values for `CN(C)CCN1C(=O)C(NC(=O)Nc2ccccc2)C(=O)N(CC23CC4CC(CC(C4)C2)C3)c2ccccc21` (stereo not shown) [Example 7, N-[1-(1-Adamantylmethyl)-5-[2-(dimethylamino)ethyl]-2,4-dioxo-2,3,4,5-tetrahydro-1H-1,5-benzodiazepin-3-yl]-N'-phenylurea] are 5.49 and 1.29 nM.
With `CCN(CC)CCN1C(=O)C(NC(=O)Nc2ccccc2)C(=O)N(CCC(C)C)c2ccccc21` (stereo not shown) [Example 6], the “pKi CCK-A” value at CCK-A receptor is on record as 5.39. In addition, the Ki at CCK-B receptor (setting [1]) is 1.58 nM.
